This assay addresses T1, MMP-2 (Homo sapiens, UniProt P08253).
T1 construct: purchased Calbiochem-Novabiochem International, Inc
T1 sequence (P08253 110-660): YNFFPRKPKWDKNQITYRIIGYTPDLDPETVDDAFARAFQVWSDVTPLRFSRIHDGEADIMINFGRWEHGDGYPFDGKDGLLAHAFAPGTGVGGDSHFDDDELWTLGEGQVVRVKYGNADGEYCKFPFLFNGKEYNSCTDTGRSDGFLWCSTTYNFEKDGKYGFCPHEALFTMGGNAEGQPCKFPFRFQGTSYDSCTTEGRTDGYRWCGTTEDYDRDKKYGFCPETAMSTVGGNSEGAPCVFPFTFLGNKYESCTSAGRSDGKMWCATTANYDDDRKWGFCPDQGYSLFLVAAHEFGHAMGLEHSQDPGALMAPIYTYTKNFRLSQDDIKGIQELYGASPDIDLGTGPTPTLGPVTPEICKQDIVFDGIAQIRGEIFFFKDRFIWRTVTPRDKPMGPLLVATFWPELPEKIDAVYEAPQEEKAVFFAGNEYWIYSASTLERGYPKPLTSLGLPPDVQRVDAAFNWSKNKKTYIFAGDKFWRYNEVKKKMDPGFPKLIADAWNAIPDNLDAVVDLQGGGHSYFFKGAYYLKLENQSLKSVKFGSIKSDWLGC
The experiment in a line: Assay for inhibitory activities on MMP-2 (fluorogenic coumarin-labelled peptide substrate). The format is biochemical. The following applies: MMP-2 purchased from Calbiochem-Novabiochem; substrate MOCAc-Pro-Leu-Gly-Leu-A2Pr(DNP)-Ala-Arg-NH2. How it is done: MMP-2 was purchased from Calbiochem-Novabiochem International, Inc.
The enzymatic activity on MMP-2 was analyzed by the method described in “C. Graham Knight, Frances Willenbrock and Gillian Murphy: A novel coumarin-labelled peptide for sensitive continuous assays of the matrix metalloproteinases: FEBS LETT., 296, (1992), 263-266”. The substrate: MOCAc-Pro-Leu-Gly-Leu-A2Pr(DNP)-Ala-Arg-NH2 was purchased from Peptide Institute, Inc., Osaka, Japan.
The measurement of the inhibitory activities (IC50) was carried out by the following four methods;
A) Reaction with substrate, enzyme (MMPs) and inhibitor
B) Reaction with substrate and inhibitor, without enzyme
C) Reaction with substrate and enzyme (MMPs), without inhibitor
D) Reaction with substrate only
IC50 values were calculated by using the following formula and each fluorescence values of above four methods (A to D).
IC50 means the concentration required to inhibit 50% of the enzyme activity.
`O=C(O)CNS(=O)(=O)c1ccc(-c2noc(-c3cccs3)n2)cc1` [Compound A-62] showed a concentration for half-maximal inhibition (IC50) of 196 nM.

Molecule `CCCc1ccc(-c2nc(-c3ccc(S(=O)(=O)N[C@H](Cc4c[nH]c5ccccc45)C(=O)O)cc3)no2)cc1` [Compound A-65] displayed an IC50 of 1.66 nM.

`CC(C)[C@@H](NS(=O)(=O)c1ccc(-c2noc(-c3ccccc3)n2)cc1)C(=O)O` [Compound A-16]: the half-maximal inhibitory concentration (IC50) was 26.4 nM.

Consider `Cc1ccc(-c2nc(-c3ccc(S(=O)(=O)N[C@H](C)C(=O)O)cc3)no2)cc1` [Compound A-10], for which the IC50 was found to be 9.17 nM.

Molecule `Cc1ccc(-c2nc(-c3ccc(S(=O)(=O)N[C@@H](Cc4ccccc4)C(=O)O)cc3)no2)cc1` [Compound A-30] registered an IC50 of 39.8 nM.

`O=C(O)[C@@H](Cc1ccccc1)NS(=O)(=O)c1ccc(-c2noc(-c3ccccc3)n2)cc1` [Compound A-29] yielded an IC50 of 27.9 nM.

`O=C(O)CNS(=O)(=O)c1ccc(-c2noc(-c3ccc(F)cc3)n2)s1` [Compound B-14] gave an IC50 of 224 nM.

Consider `CC(C)[C@@H](NS(=O)(=O)c1ccc(-c2noc(-c3cccs3)n2)cc1)C(=O)O` [Compound A-22], for which the IC50 stood at 40.7 nM.

As for `CC(C)[C@@H](NS(=O)(=O)c1ccc(-c2noc(-c3ccc(F)cc3)n2)s1)C(=O)O` [Compound B-1], the IC50 was 67.7 nM.

`CCc1ccc(-c2nc(-c3ccc(S(=O)(=O)NCC(=O)O)cc3)no2)cc1` [Compound A-59] came in with an IC50 of 20 nM.

For the molecule `CCc1ccc(-c2nc(-c3ccc(S(=O)(=O)N[C@@H](C(=O)O)C(C)C)s3)no2)cc1` [Compound B-2], the IC50 worked out at 5.39 nM.

In turn, `Cc1ccc(-c2nc(-c3ccc(S(=O)(=O)N[C@@H](CC(C)C)C(=O)O)cc3)no2)cc1` [Compound A-67] registered an IC50 of 124 nM.

Molecule `CC(C)[C@@H](NS(=O)(=O)c1ccc(-c2noc(-c3ccc(Cl)cc3)n2)cc1)C(=O)O` [Compound A-2] showed an IC50 of 5.75 nM.

As for `CCc1ccc(-c2nc(-c3ccc(S(=O)(=O)NCC(=O)O)s3)no2)cc1` [Compound B-16], the IC50 was 12.6 nM.

In turn, `O=C(O)[C@@H](Cc1ccccc1)NS(=O)(=O)c1ccc(-c2noc(-c3cccs3)n2)cc1` [Compound A-40] showed an IC50 of 31 nM.

Molecule `Cc1ccc(-c2nc(-c3ccc(S(=O)(=O)N[C@H](C)C(=O)O)s3)no2)s1` [Compound B-10] displayed an IC50 of 6.29 nM.

On to `C[C@@H](NS(=O)(=O)c1ccc(-c2noc(-c3ccsc3)n2)cc1)C(=O)O` [Compound A-55], for which inhibition was half-maximal at 50.3 nM (IC50).

Molecule `Cc1ccc(-c2nc(-c3ccc(S(=O)(=O)NCC(=O)O)cc3)no2)s1` [Compound A-63] came in with an IC50 of 33.9 nM.

Regarding `O=C(O)[C@H](Cc1ccccc1)NS(=O)(=O)c1ccc(-c2noc(-c3ccc(Cl)c(Cl)c3)n2)cc1` [Compound A-39], half-maximal inhibition (IC50) required 80.7 nM.

In turn, `Cc1cccc(-c2nc(-c3ccc(S(=O)(=O)N[C@H](Cc4ccccc4)C(=O)O)cc3)no2)c1` [Compound A-36] displayed an IC50 of 38 nM.

As to `Cc1ccc(-c2nc(-c3ccc(S(=O)(=O)N[C@H](Cc4ccccc4)C(=O)O)s3)no2)s1` [Compound B-6], the IC50 worked out at 26.5 nM.

Molecule `Cc1ccc(-c2nc(-c3ccc(S(=O)(=O)NCC(=O)O)s3)no2)cc1` [Compound B-15] yielded an IC50 of 39 nM.

In turn, `CC(C)[C@@H](NS(=O)(=O)c1ccc(-c2noc(-c3ccc(F)cc3)n2)cc1)C(=O)O` [Compound A-17] registered an IC50 of 15.5 nM.

`CCCc1ccc(-c2nc(-c3ccc(S(=O)(=O)N[C@H](C)C(=O)O)cc3)no2)cc1` [Compound A-48] came in with an IC50 of 1.17 nM.

For `C[C@@H](NS(=O)(=O)c1ccc(-c2noc(-c3ccc(F)cc3)n2)cc1)C(=O)O` [Compound A-45], the midpoint of inhibition, the IC50, lay at 31 nM.

For `CCCCc1ccc(-c2nc(-c3ccc(S(=O)(=O)N[C@@H](C(=O)O)C(C)C)cc3)no2)cc1` [Compound A-4], the IC50 turned out to be 1.23 nM.

With `CCc1ccc(-c2nc(-c3ccc(S(=O)(=O)N[C@H](C)C(=O)O)cc3)no2)cc1` [Compound A-47], the concentration for half-maximal inhibition (IC50) was found to be 4.63 nM.

With `CN(C)c1ccc(-c2nc(-c3ccc(S(=O)(=O)N[C@H](Cc4ccccc4)C(=O)O)cc3)no2)cc1` [Compound A-8], half-maximal inhibition (IC50) was put at 11.9 nM.

For `CCCc1ccc(-c2nc(-c3ccc(S(=O)(=O)N[C@H](C(=O)O)C(C)C)cc3)no2)cc1` [Compound A-21], the IC50 came out at 126 nM.

With `C[C@@H](NS(=O)(=O)c1ccc(-c2noc(-c3cccs3)n2)cc1)C(=O)O` [Compound A-52], the IC50 is 36.8 nM.

With `O=C(O)[C@H](Cc1ccccc1)NS(=O)(=O)c1ccc(-c2noc(-c3ccc4c(c3)OCO4)n2)cc1` [Compound A-37], 20.2 nM corresponded to half-maximal inhibition (IC50).

In turn, `C[C@@H](NS(=O)(=O)c1ccc(-c2noc(-c3ccccc3)n2)cc1)C(=O)O` [Compound A-44] registered an IC50 of 45 nM.

On to `CC(C)[C@@H](NS(=O)(=O)c1ccc(-c2noc(-c3ccc(Cl)s3)n2)cc1)C(=O)O` [Compound A-26], for which half-maximal inhibition (IC50) required 6.72 nM.

Consider `C[C@@H](NS(=O)(=O)c1ccc(-c2noc(-c3ccc(Cl)cc3)n2)cc1)C(=O)O` [Compound A-11], for which the concentration for half-maximal inhibition (IC50) is 18.6 nM.

`C[C@@H](NS(=O)(=O)c1ccc(-c2noc(-c3ccco3)n2)cc1)C(=O)O` [Compound A-56] yielded an IC50 of 70.5 nM.

The molecule `CCCCc1ccc(-c2nc(-c3ccc(S(=O)(=O)N[C@H](Cc4ccccc4)C(=O)O)cc3)no2)cc1` [Compound A-9] registered an IC50 of 6.04 nM.

`CC(C)[C@H](NS(=O)(=O)c1ccc(-c2noc(-c3ccc(Cl)s3)n2)cc1)C(=O)O` [Compound A-27]: the IC50 was found to be 60.3 nM.

Molecule `O=C(O)[C@@H](Cc1ccccc1)NS(=O)(=O)c1ccc(-c2noc(-c3ccc(C4CCCCC4)cc3)n2)cc1` [Compound A-35] yielded an IC50 of 14.4 nM.

Turning to `CC(C)[C@H](NS(=O)(=O)c1ccc(-c2noc(-c3cccs3)n2)cc1)C(=O)O` [Compound A-23], the IC50 worked out at 339 nM.

Take `O=C(O)[C@@H](Cc1ccccc1)NS(=O)(=O)c1ccc(-c2noc(-c3ccc(F)cc3)n2)s1` [Compound B-3]: it took 223 nM to reach half-maximal inhibition (IC50).

In turn, `Cc1ccc(-c2nc(-c3ccc(S(=O)(=O)N[C@@H](C(=O)O)C(C)C)cc3)no2)s1` [Compound A-24] showed an IC50 of 2.88 nM.

As for `Cc1ccc(-c2nc(-c3ccc(S(=O)(=O)N[C@H](Cc4ccccc4)C(=O)O)cc3)no2)cc1` [Compound A-5], the half-inhibitory concentration (IC50) is 6.68 nM.

`Cc1ccc(-c2nc(-c3ccc(S(=O)(=O)NCC(=O)O)cc3)no2)cc1` [Compound A-12]: the IC50 was found to be 51.6 nM.

As for `C[C@@H](NS(=O)(=O)c1ccc(-c2noc(-c3cccs3)n2)s1)C(=O)O` [Compound B-9], the IC50 was found to be 28 nM.

The molecule `O=C(O)[C@@H](Cc1c[nH]c2ccccc12)NS(=O)(=O)c1ccc(-c2noc(-c3ccc(F)cc3)n2)s1` [Compound B-12] yielded an IC50 of 29 nM.

`O=C(O)[C@@H](Cc1ccccc1)NS(=O)(=O)c1ccc(-c2noc(-c3ccc(F)cc3)n2)cc1` [Compound A-7] gave a 50% inhibitory concentration (IC50) of 26.5 nM.

Molecule `CCCc1ccc(-c2nc(-c3ccc(S(=O)(=O)NC(C(=O)O)C(C)C)cc3)no2)cc1` (stereo not drawn) [Compound A-20] yielded an IC50 of 0.883 nM.

Molecule `N#Cc1ccc(-c2nc(-c3ccc(S(=O)(=O)N[C@H](Cc4ccccc4)C(=O)O)cc3)no2)cc1` [Compound A-34] showed an IC50 of 13.1 nM.

The molecule `Cc1ccc(-c2nc(-c3ccc(S(=O)(=O)N[C@@H](C)C(=O)O)cc3)no2)cc1` [Compound A-46] returned an IC50 of 458 nM.

`Cc1ccc(-c2nc(-c3ccc(S(=O)(=O)N[C@H](Cc4ccccc4)C(=O)O)cc3)no2)s1` [Compound A-41] yielded a half-maximal inhibitory concentration (IC50) of 5.59 nM.

`Cc1ccc(-c2nc(-c3ccc(S(=O)(=O)N[C@H](C(=O)O)C(C)C)cc3)no2)s1` [Compound A-25] returned an IC50 of 47.4 nM.

In turn, `CC(C)C[C@@H](NS(=O)(=O)c1ccc(-c2noc(-c3ccc(Cl)cc3)n2)cc1)C(=O)O` [Compound A-66] displayed an IC50 of 37.6 nM.

With `C[C@@H](NS(=O)(=O)c1ccc(-c2noc(-c3ccc(F)cc3)n2)s1)C(=O)O` [Compound B-7], half-maximal inhibition (IC50) required 39.7 nM.

`CC(=O)c1ccc(-c2nc(-c3ccc(S(=O)(=O)N[C@H](C)C(=O)O)cc3)no2)cc1` [Compound A-51] had an IC50 of 3.21 nM.

Turning to `CCCc1ccc(-c2nc(-c3ccc(S(=O)(=O)N[C@@H](C)C(=O)O)cc3)no2)cc1` [Compound A-49], it took 126 nM to reach half-maximal inhibition (IC50).

For `O=C(O)[C@@H](Cc1ccccc1)NS(=O)(=O)c1ccc(-c2noc(-c3ccc(Cl)cc3)n2)cc1` [Compound A-6], the IC50 is 13.9 nM.

Regarding `C[C@@H](NS(=O)(=O)c1ccc(-c2noc(-c3ccc([N+](=O)[O-])cc3)n2)cc1)C(=O)O` [Compound A-50], it took 12.6 nM to reach half-maximal inhibition (IC50).

Broadly, the IC50 is the concentration at which inhibition is half-maximal. A high value points to weaker potency in that assay.

The values are drawn from US6495578B1, “Sulfonamide derivatives having oxadiazole rings” (Shionogi & Co., Ltd., priority 1999, dated 2002).
